In patent publication US20240269170A1, “Treatment of Inflammatory Conditions or Diseases” (Queen Mary University of London, priority 2021, published 2024):

System: Arg-1
Assay: Arg-1 expression in bone marrow monocyte-derived macrophages differentiated in vitro, flow cytometry
Format: cell-based, mouse
Experimental: (B) Mice were administered K/B×N serum on days 0, 2 and 9 then on day 12 they were treated 2×10^6 PKH67-labelled monocytes isolated from arthritic mice and incubated with either vehicle (PBS+0.1% EtOH) or 1 nM MCTR3 for 90 min via i.v injection. After 10 days joints were harvested, cells were liberated that the expression of Arg-1 was evaluated in PKH67^+CD64^+ cells using flow cytometry. Results are from n=10 mice per group. Statistical differences were evaluated using a Mann-Whitney U test. (C) Inflammatory arthritis was induced in C57BL/6 mice and bone marrow-derived monocytes were isolated and treated as in A and Arg-1 expression was evaluated using flow cytometry. Results are mean±SEM and expressed as percentage change from cells incubated with vehicle alone. n=8 per group from two separate experiments. Statistical differences were evaluated using one-sample Wilcoxon signed rank test. (D) Mice were given K/B×N serum (via i.p. injection) on days 0, 2 and 9. […] On day 22, joints were collected and the expression of Arg-1 in PKH67^+ CD64^+ cells was evaluated using flow cytometry. Results are mean±SEM and expressed as percentage change from vehicle group. n=5 mice per group. Statistics differences were evaluated Mann-Whitney U test. […]

Row | SMILES | ability of MCTR3 to upregulate Arg-1 in vitro (monocytes incubated with 10 μM RG108 for 45 min before 1 nM MCTR3) | Arg-1 expression in MDM differentiated in vitro (1 nM MCTR3 for 24 hours on monocytes)
1 | O=C(O)C(Cc1c[nH]c2ccccc12)N1C(=O)c2ccccc2C1=O (centres unmarked) [RG108] | reversed | 
2 | CC/C=C\C/C=C\C[C@H](O)[C@@H](/C=C/C=C/C=C\C/C=C\CCC(=O)O)SC[C@H](N)C(=O)O [MCTR3, 13R-cysteinyl, 14S-hydroxy-4Z, 7Z, 9E, 11E, 13R, 14S, 16Z, 19Z-docosahexaenoic acid] |  | upregulate
